Marks after values point to notes of the source that are not given here.
Columns and labels:
[1] = tested on: BxPC-3 human PDAC xenograft; experiment: Antitumor activity in BxPC-3 PDAC xenograft model; format: in vivo, nude mice
Description: (§1) Dosing for the animal studies described below were selected as follows. In some current human clinical trials, TH-302 is given on once-a-week schedules (QW) of three weeks on, one week off (at a dose of 240 or 340 mg/m^2). […] In xenograft models, gemcitabine is administered at 60 or 80 mg/kg in four three-day cycles (Q3D×4) (Teicher et al., Cancer Res. 6:1016, 2000; Marriman et at., invest New Drugs. 14:243, 1996). […] The therapy was administered every three days for five cycles (Q3D×5).
(§2) The animal studies were conducted using, xenograft models for pancreatic ductal adenocarcinoma (PDAC). Tumors were generated in the flanks of nude mice by subcutaneous injection of established human PDAC cell lines. Four PDAC xenograft models were established by subcutaneous implantation of either Hs766t, MIA PaCa-2, PANC-1 or BxPC-3 cells into the flank of nude mice. Mice were implanted subcutaneously in the right flank with 5×10^6 cells in 30% Matrilgel™ at a dose volume of 200 μL. Mice bearing similar tumor size were randomly assigned into different groups when tumor size reached 150 mm^3. […] Antitumor activity of the G+nP+T triplet combination therapy was assessed, and compared with the G+nP doublet combination therapy.
(§3) Tumor growth delay 1000 mm^3 (TGD1000) was determined as the difference in time required for the mean tumor size to reach 1000 mm^3 between treated group and vehicle control group. TGD1000 of T monotherapy and G+nP doublet combination therapy groups was 47 and 35 days, respectively, while TGD1000 of G+nP+T triplet combination therapy group was 53 days. […] (see Table 1, below).
(§4) In three of the four models, the triplet combination therapy increased the complete response rate (CR) relative to the G+nP combination therapy or the T monotherapy. CR was defined as disappearance of tumor or tumor size is <100 mm^3 at a study point. Of note, the CR rate of the G+nP+T combination therapy in the PANC-1 model reached 100%, compared to 0% and 60% in the T monotherapy and G+nP combination therapy groups, respectively. In the MIA PaCa-2 model, CR rate in the triplet group was 90%, compared to 0 and 10% in the T monotherapy and G+nP doublet combination therapy groups, respectively.

[2] = von Frey neuropathy assay (mechanical hyperalgesia); format: in vivo; conditions: male CD-1 mice; compared to V, from 9 days after initiation of treatment
Description: To determine the effect of combination therapy on the nervous system, male CD-1 mice were randomly divided into 4 groups with 10 mice each. Mechanical hyperalgesia tests were performed prior to the initial treatment and during the study by a trained observer who was unaware of the animal group identities. […] This hyperalgesia persisted to 37 days with peaks at day 16 and day 23 (p<0.001, two-way ANOVA), and gradually returned to baseline at day 43. […] There was no difference between G+nP+T combination therapy treated and G+nP combination therapy treated animals.

PANC-1 xenograft tumors = experiment: Pharmacodynamic biomarkers by histology, immunohistochemistry or in situ assay in PANC-1 tumors; format: in vivo, nude mice
Description: We used a panel of biomakers to characterize Hs766t, MIA PaCa-2, PANC-1 and BxPC3 xenograft tumors. […] We chose a moderate hypoxic level tumor model, PANC-1, to investigate the pharmacodynamic changes caused by the different treatments, PANC-1 tumor-bearing animals were treated with vehicle, TH-302, G+nP, and G+nP+T when tumor size was approximately 500 mm^3. One day after the last treatment, tumors were harvested, fixed, paraffin-embedded, and sectioned for staining with a panel of histology and immunohistochemistry markers.
Similar to as observed for apoptosis, γH2AX-positive cells were increased in all three drug treated groups compared with V. 31±1.3 positive cells/field in the G+nP+T triplet group, compared with 19 in T alone or G+nP and less than 4 in V (p<0.05). Cells with DNA damage were evenly distributed in both the hypoxic and oxic compartments in non-necrotic regions. Ki67 is a marker of cell proliferation, labeling all active phases of the cell cycle including S, G2, and mitosis.
To determine the effect of combination therapy on tumor microenvironment, tumor stroma and hypoxia were investigated. Tumor stroma is composed of extracellular matrix protein and cellular elements. Thus, collagen I and III, as main parts of extracellular matrix were evaluated by Picrosirius red staining. Activated fibroblasts in the stroma were analyzed by α-SMA. […] There was no co-localization between exogenous pimonidazole- and endogenous CAIX-positive cells, CA-IX was found in the necrotic cells as well.

[3] = Clinical injection site and administration reactions of TH-302; format: in vivo, human
Text: Care in the administration of TH 302 will reduce the chance of perivenous infiltration. If any signs or symptoms of extravasation occur, the administration of TH 302 should be immediately terminated and restarted in another vein. TH 302 should always be administered via a freely flowing i.v. line, preferably, where feasible, through a central venous catheter. Administration through small veins, particularly on the hands and feet is discouraged. Because of the progressive nature of extravasation reactions, close observation and plastic surgery consultation is recommended.
TH 302 administration reactions have been observed. […] It is recommended that a steroid such as dexamethasone (or equivalent) be included in the antiemetic regimen prior to administration. Symptoms and signs of hypersensitivity include fever, myalgia, headache, rash, pruritus, urticaria, angioedema, chest discomfort, dyspnea, coughing, cyanosis, and hypotension. If the nature and the severity of the reaction require termination of treatment, it should be determined if the reaction may or may not be an immunoglobulin E mediated process. […] If the event is clearly anaphylaxis, then epinephrine ( 1/1000, 0.3 to 0.5 mL given subcutaneously or equivalent) should be considered as well as standard treatment approaches. […] Reactions to the administration of TH 302 should be assessed and treated in a similar manner. […]

[4] = Treatment-induced body weight loss in PDAC tumor bearing and CD-1 non-tumor bearing mice; format: in vivo
Description: Another series of studies were conducted to investigate the treatment-induced body weight (BW) loss in both PDAC tumor bearing animals and CD-1 immunocompetent mice. Body weight was measured daily or twice a week.

[5] = tested on: pancreatic ductal adenocarcinoma (PDAC); conditions: TH-302 added to gemcitabine (GEM) versus GEM only; cited from earlier work
[6] = Hematological testing (Hemavet 950 blood analyzer); format: in vivo, PANC-1 tumor bearing nude mice and CD-1 mice; conditions: 24 hrs after last treatment; T and G+nP vs V, triplet vs G+nP
Description: To determine the effect of combination therapy on hematopoiesis, the same treatment was employed in PANC-1 tumor bearing nude mice as well as immunocompetent CD-1 mice. Twenty-four hrs. after the last treatment, the animals were euthanized under CO2, blood was collected via heart puncture, and hematological analysis was performed using a Hemavet 950™ blood analyzer. As shown in FIG. 2 (mean±SEM), G+nP combination therapy or T monotherapy reduced neutrophils, lymphocytes, and monocytes, and complete white blood cell count (WBC), compared with V(*p<0.05 compared with V).

[7] = tested on: PANC-1 human PDAC xenograft; experiment: Antitumor activity in PANC-1 PDAC xenograft model; format: in vivo, nude mice
Description: as §1, §2, §3, §4

[8] = tested on: cell lines with mutations in BRCA1 or BRCA2; experiment: Sensitivity of BRCA1 or BRCA2 mutated cell lines to TH-302; format: cell-based
Text: A human clinical trial can include analysis of any of a series of biomarkers. […] The prevalence of BRCA1 and BRCA2 mutations in pancreatic cancer patients is between 5% and 19%, Thus, a trial can include collection of serum, plasma, and tissue samples for analysis of any markers useful for identifying suitable patient populations and/or liar monitoring the course of therapy.

[9] = tested on: Hs766t human PDAC xenograft; experiment: Antitumor activity in Hs766t PDAC xenograft model; format: in vivo, nude mice; conditions: for MT (Median Time to reaching the size of 1000 mm^3): Kaplan-Meier; for TGI (Tumor Growth Inhibition): T 50 mg/kg i.p., nP 30 mg/kg i.v., G 60 mg/kg i.p.
Description: as §1, §2, §3, §4

[10] = tested on: MIA PaCa-2 human PDAC xenograft; experiment: Antitumor activity in MIA PaCa-2 PDAC xenograft model; format: in vivo, nude mice
Description: as §1, §2, §3, §4

pancreatic cancer = conditions: Phase 3 trial, pancreatic cancer patients; cited from earlier work
[11] = PANC-1, TV 1000 mm^3 as endpoint
[12] = MIA PaCa-2, TV 1000 mm^3 as endpoint

Cn1c(COP(=O)(NCCBr)NCCBr)cnc1[N+](=O)[O-] [TH-302, (2-bromoethyl)({[(2-bromoethyl)amino][(2-nitro-3-methylimidazol-4-yl)methoxy]phosphoryl})amine]
CR (Complete Response) of 10 [1]: 0 of 10
TGD1000 (vs. vehicle) ([1]; Q3D×5): 11 days
TGI (Tumor Growth Inhibition) ([1]; T 50 mg/kg i.p., nP 30 mg/kg i.v., G 60 mg/kg i.p., Q3D×5): 43%
ILS (Increased Life Span) ([1]; TV 1000 mm^3 as endpoint): 52%
MT (Median Time to reaching the size of 1000 mm^3) ([1]; TV 1000 mm^3 as endpoint): 24 days
hind-paw mechanical hyperalgesia [2]: no mechanical hyperalgesia
γH2AX-positive cells (DNA damage) (PANC-1 xenograft tumors; V less than 4): 19 positive cells/field
extracellular collagen (Picrosirius red staining) (PANC-1 xenograft tumors; morphometric analysis): no effect
α-SMA expression (activated fibroblasts in stroma) (PANC-1 xenograft tumors; morphometric analysis): no effect
number of apoptotic cells (TUNEL assay) (PANC-1 xenograft tumors; non-necrotic regions, V 0.8±0.1): 3±0.2 per field
tumor necrotic fraction (Masson's Trichrome histology staining) (PANC-1 xenograft tumors; one day after last treatment, V 9%): 35%
hypoxic fraction (HF) (PANC-1 xenograft tumors; pimonidazole, V 12.4+2%): 10.6±1.1%
injection site reactions reported ([3]; i.v. administration): Supravenous erythema and hyperpigmentation
administration reactions observed ([3]; responded to steroid and antihistamine treatment): lip swelling and urticaria
maximal body weight loss ([4]; BxPC3, Nude ♀ (n = 10)): 0%
maximal body weight loss ([4]; Hs766t, Nude ♀ (n = 10)): 0%
maximal body weight loss ([4]; MIA PaCa-2, Nude ♀ (n = 10)): 0%
maximal body weight loss ([4]; Non-tumor CD-1 ♀ (n = 6)): 0%
maximal body weight loss ([4]; Non-tumor CD-1 ♂ (n = 10)): 0%
maximal body weight loss ([4]; PANC-1 #1, Nude ♀ (n = 10)): 0%
maximal body weight loss ([4]; PANC-1 #2, Nude ♀ (n = 5)): 0%
maximal body weight loss ([4]; PANC-1 #3, Nude ♀ (n = 10)): 0%
maximal BW loss (percentage of mean maximal BW loss compared with pretreatment) ([4]; across the 8 studies, G+nP range in 7 of 8 studies): 0%
progression-free survival [5]: significant increase
neutrophils, lymphocytes, monocytes and complete white blood cell count (WBC) [6]: reduced
CR (Complete Response) of 10 ([7]; PANC-1): 0 of 10
TGD1000 (vs. vehicle) ([7]; PANC-1, Q3D×5): 7 days
TGI (Tumor Growth Inhibition) ([7]; PANC-1, T 50 mg/kg i.p., nP 30 mg/kg i.v., G 60 mg/kg i.p., Q3D×5): 44.5%
ILS (Increased Life Span) [7, 11]: 48%
MT (Median Time to reaching the size of 1000 mm^3) [7, 11]: 31 days
CR rate ([7]; PANC-1 model): 0%
sensitivity to TH-302 [8]: Enhanced sensitivity
MT (Median Time to reaching the size of 1000 mm^3) ([9]; TV 1000 mm^3 as endpoint): 59.5*^,a day
MT (Median Time to reaching the size of 1000 mm^3) ([9]; TV 1000 mm^3 as endpoint, listed as T): 59.5 days
TGD1000 (vs. vehicle) ([9]; Q3D×5, delay of mean tumor size to 1000 mm^3): 47 days
TGI (Tumor Growth Inhibition) ([9]; Q3D×5): 82.1%*
TGI (Tumor Growth Inhibition) ([9]; Q3D×5, listed as T): 82.1%
ILS (Increased Life Span) ([9]; TV 1000 mm^3 as endpoint): 297%
CR (Complete Response) of 10 ([9]; tumor gone or <100 mm^3): 0 of 10
CR (Complete Response) of 10 ([10]; MIA PaCa-2): 0 of 10
TGD1000 (vs. vehicle) ([10]; MIA PaCa-2, Q3D×5): 6 days
TGI (Tumor Growth Inhibition) ([10]; MIA PaCa-2, T 50 mg/kg i.p., nP 30 mg/kg i.v., G 60 mg/kg i.p., Q3D×5): 27%
ILS (Increased Life Span) [10, 12]: 26%
MT (Median Time to reaching the size of 1000 mm^3) [10, 12]: 34 days
CR rate ([10]; MIA PaCa-2 model): 0%

Nc1ccn([C@@H]2O[C@H](CO)[C@@H](O)C2(F)F)c(=O)n1 [gemcitabine]
median overall survival (pancreatic cancer): 6.6 months
